Measurements: US7718394B2, “Methods for diagnosis and monitoring of neurological disease by detection of an encephalotoxin” (priority 2003, dated 2010)
Entries after “also recorded” stand apart in the source; their conditions may differ.

Experiment: Inactivation of encephalotoxin by nitrous acid, heparin lyases and sulfatases (loss of neurotoxic activity)
Format: biochemical
Description: Structural characterization and inactivation of encephalotoxin (isolated by organic extractions, gel filtration, and sequential C18 HPLC from Aβ-stimulated microglial cell line BV2) was performed by various nitrous acid cleavage protocols. […] Traditionally, heparin lyase I acts primarily on heparin-containing GlcNS(1→4)IdoA2S sequences and heparin lyase III on HS primarily at a GlcNAc(1→4)IdoA or GlcNAc(1→4)GlcA sequence.
1 ml of CSF was fractionated by adsorption chromatography, dried under vacuum, and reconstituted in artificial CSF comprising electrolytes, such as NaCl, and glucose. Increasing amounts of fractionated toxin (range 0.1 to 500 ul equivalents of original sample volume) were added to triplicate cultures. Results were plotted as volume vs. % neuron kill (with kill calculated as % loss of immuno-stained hippocampal neurons against untreated control cultures). […] In order to compare different populations, a CSF Neurotoxicity Index was developed to assign scores that reflect level of neurotoxin. This index was calculated as an ED50 (the equivalent CSF volume that yields 50% of the maximal level of neuron killing).

In the case of `O=NO` [nitrous acid], the “inactivation of encephalotoxin released by BV2 microglia” value (encephalotoxin from Aβ-stimulated microglial cell line BV2, FIG. 1A) is reported as “inactivated; also recorded: eliminated”, the “inactivation of encephalotoxin recovered from lumbar CSF of subject with AD” value (lumbar CSF, AD, FIG. 1C) is reported as “inactivated” and the “inactivation of encephalotoxin found in ventricular CSF of AD brain” value (ventricular CSF of AD brain, FIG. 1B) is reported as “inactivated”.
